Laboratory results reported in paper PMC11556054, “Development and Synthesis of Bombesin-Based Radiopharmaceutical Precursors Modified with Knottin” (Modern Technologies in Medicine, 2024).

How the values were obtained:
[1] = Chemical stability in 0.9% sodium chloride (HPLC chromatographic purity); assay type: physicochemical; details: target peak area as % of total peak area, M±SD
Protocol: The analysis of the synthesis and purity control of the commercial PSMA-617 (Huayi Isotopes, China) was performed using chromatographic system Shimadzu LC-20AD XR (Shimadzu, Japan), equipped with spectrophotometric detector SPD-20A, according to the principle of the reverse-phase chromatography with the help of Luna C18 column (Dr. Maisch, Germany) and gradient elution of acetonitrile (Criochrome, Russia) from 95 to 0% and deionized water from 0 to 100% for 40 min. Mass-spectrometric analysis was conducted on the basis of MALDI-TOF mass-spectrometry using MALDI-TOF MS system, series FLEX (Bruker Daltonics, Germany). The peptide was purified by means of a high-performance liquid chromatography system NGC Quest 10 (Bio-Rad, USA) using Bio-Gel P-4 sorbent on the Econo-Column 1×30 cm (Bio-Rad, USA).
Lutetium (^177Lu) chloride was used as a radioligand. […] The radioactivity of samples was measured with a gamma counter ISOMED 2010 (PTW, Germany). Labeling of the peptides was conducted on a Gaia/Luna complex (Elysia-Raytest, Germany). […] The system was controlled by the Clarity programs (Clarity Software, Great Britain). The labeled peptides were purified from free lutetium with the help of single-use cartridges C18 (ABX, Germany), the GAIA complex was used according to the gel-filtration principle. Radiochemical stability was evaluated using the same parameters after 24, 48, 96 and 168 h in 0.9% sodium chloride at 37°C. Chemical stability was similarly fixed in 0.9% sodium chloride as described above. Chromatographic purity was calculated as a percentage of the target substance peak area in relation to the total area of the peaks on the chromatogram taken as 100%.

LnCap culture = assay: Binding of 6-FAM-labeled peptides to cell culture, fluorescence microscopy; assay type: cell-based, human; details: 1 μmol/L, 3 h incubation, washed with cooled phosphate buffer, ImageJ, >300 cells
Protocol: (§1) A fluorescent dye 6-FAM in the form of amine (Lumiprob, Russia) was used for bonding analysis. The peptides were labeled according a standard manufacturer protocol: they were dissolved in 0.1 mol/L solution of NaHCO3, 6-FAM dye was then added to the solution and incubated for 30 min at room temperature in the dark. The peptides were purified from the dye excess using alcohol precipitation method. For purification, one part of the labeled peptide solution was mixed with nine parts of the 95% ethanol cooled at –20°C. Further, the peptides were incubated for 90 min at the same temperature (–20°C). After incubation, the cooled solution was centrifuged for 15 min at 13,000 rpm in the Allegra centrifuge (Beckman Coulter, USA). After centrifugation, the supernatant, containing the labeled peptide, was removed and dried using a vacuum concentrator (Eppendorf, Germany).
(§2) The peptides were bound to the cell cultures such as HCT-116, LnCap, PC-3, CHO-K1. The HCT-116 (human colorectal carcinoma cell line) and CHO-K1 (an epithelial cell line derived from the Chinese hamster ovary) were obtained from the Russian collection of cell cultures of vertebrate. The LnCap (PSMA-positive adenocarcinoma of the human prostate gland) and PC-3 cultures (PSMA-negative adenocarcinoma of the human prostate obtained from the bone metastases) were kindly provided by the N.N. Blokhin National Medical Research Center of Oncology (Russia). […]
(§3) 24 h before the experiment, the cultures were seeded in 24-well plates at the concentration of 100,000/well (LnCap — 150,000/well) to achieve the exponential stage. […] After the incubation, the medium with unbonded peptides was removed, the plate wells were washed with a cooled phosphate buffer and the fluorescence signal was recorded using an optical system equipped with a Nikon Ti-S microscope, DS-Qi1MC camera, S Plan Fluor ELWD 20×0.45 objective lenses, 465-495/515-555 nm filter (Nikon, Japan), and a computer with NIS-elements 4.0 software package.
(§4) The quantitative analysis of images was performed with an ImageJ program. The fluorescence signal from more than 300 cells was analyzed for each peptide. The fluorescence intensity was calculated by the following formula: total cell fluorescence = integral density – (area of the selected cell × mean fluorescence of the background indicators) as described by Khokhlova et al.. Shortly it looks like as follows: to obtain a fluorescence signal of each selected cell in the ImageJ program, the integral density parameter is taken, after that, the fluorescence of the background, equal in area to the cell size, is subtracted from this parameter. The fluorescence signal without peptides was registered as a control. The data were presented in the relative units of fluorescence.

PC-3 culture = assay: as above; assay type: cell-based, human; details: 1 μmol/L, 3 h incubation, washed with cooled phosphate buffer, ImageJ, >300 cells
Protocol: as §1, §2, §3, §4

HCT-116 culture = assay: as above; assay type: cell-based, human; details: 1 μmol/L, 3 h incubation, washed with cooled phosphate buffer, ImageJ, >300 cells
Protocol: as §1, §2, §3, §4

[2] = Radiochemical stability of 177Lu-labeled structures in 0.9% sodium chloride (radio-HPLC); assay type: physicochemical; details: for radiochemical purity after 168 h: 168 h in 0.9% sodium chloride at 37°C
Protocol: Lutetium (^177Lu) chloride was used as a radioligand. […] The radioactivity of samples was measured with a gamma counter ISOMED 2010 (PTW, Germany). Labeling of the peptides was conducted on a Gaia/Luna complex (Elysia-Raytest, Germany). […] The system was controlled by the Clarity programs (Clarity Software, Great Britain). The labeled peptides were purified from free lutetium with the help of single-use cartridges C18 (ABX, Germany), the GAIA complex was used according to the gel-filtration principle.

CHO-K1 culture = assay: Binding of 6-FAM-labeled peptides to cell culture, fluorescence microscopy; assay type: cell-based, Chinese hamster; details: 1 μmol/L, 3 h incubation, washed with cooled phosphate buffer, ImageJ, >300 cells, negative control culture
Protocol: as §1, with “After incubation, the cooled solution was centrifuged for 15 min at 13,000 rpm in the Allegra centrifuge (Beckman Coulter, USA). After centrifugation, the supernatant, containing the labeled peptide, was removed and dried using a vacuum concentrator (Eppendorf, Germany).” left out
as §3
The quantitative analysis of images was performed with an ImageJ program. The fluorescence signal from more than 300 cells was analyzed for each peptide. […] The fluorescence signal without peptides was registered as a control. […]

Row | chemical stability (chromatographic purity) after 24 h ([1]; 24 h in 0.9% sodium chloride, 37°C) | chemical stability (chromatographic purity) after 168 h ([1]; 168 h in 0.9% sodium chloride, 37°C) | chemical stability (chromatographic purity), initial ([1]; initial) | labeling result retained (radiochromatogram, Figure 4) after 168 h ([2]; after 168 h, radiochromatogram) | Structure (SMILES) | binding to LnCap culture (fluorescence signal) (LnCap culture) | binding to LnCap culture (fluorescence signal) (LnCap culture; listed as PSMA- 617) | binding to PC-3 culture (fluorescence signal) (PC-3 culture) | binding to HCT-116 culture (fluorescence signal) (HCT-116 culture) | radiochemical purity after 168 h ([2]; radio-HPLC, M±SD) | binding to CHO-K1 culture (fluorescence signal) (CHO-K1 culture) | radiochemical purity after 24 h ([2]; 24 h in 0.9% sodium chloride at 37°C, radio-HPLC, M±SD) | radiochemical purity after 48 h ([2]; 48 h in 0.9% sodium chloride at 37°C, radio-HPLC, M±SD) | radiochemical purity, initial ([2]; initial (after labeling and C18 cartridge purification), radio-HPLC with GABI detector, acetonitrile/water (0.01% TFA) gradient, M±SD)
1 | 80.6±6.7% | 42.9±3.4% | 99.1±2.6% | almost completely detached | O=C(O)CC[C@H](NC(=O)N[C@@H](CCCCNC(=O)[C@H](Cc1ccc2ccccc2c1)NC(=O)[C@H]1CC[C@H](CNC(=O)CN2CCN(CC(=O)O)CCN(CC(=O)O)CCN(CC(=O)O)CC2)CC1)C(=O)O)C(=O)O [PSMA-617] | high degree of attachment | is binding to the LnCap culture | not bound | not bound | 9.2±0.7% | not bound | – | – | –
2 | – | – | – | – | O=C([O-])CN1CCN(CC(=O)[O-])CCN(CC(=O)NCC2CCC(C(=O)N[C@@H](Cc3ccc4ccccc4c3)C(=O)NCCCC[C@H](NC(=O)N[C@@H](CCC(=O)O)C(=O)O)C(=O)O)CC2)CCN(CC(=O)[O-])CC1.[177Lu+3] (some centres unmarked) [Lu-PSMA-617] | – | – | – | – | 9.2±0.7% | – | 39.6±4.1% | 19.7±2.9% | 99.7±3.2%
